The subject of one assay is 143B cells. The assay is described as follows: Time-course cell proliferation / survival of 143B cells. The assay is classed as cell-based. The conditions noted are these: 143B cells under combined Piericidin and G6PDi, supplemented. The method, then:
All cell lines, 143b, HeLa, U2OS, and transmitochondrial cybrids carrying mutation in CI (ND2), CIII (CytB) or CIV (Cox2) subunits, were maintained in DMEM high glucose (HyClone), 10% FBS and 1% P/S at 37°C with 5% CO2. Mitochondrial mutant cells were cultured with supplementation of 50 µg/mL uridine. The selected cancer cell lines with different levels of malic enzyme (HCC15, KYSE410, CAKI1, J82, MDAMB453, Colo320, NCIH1703) were obtained from the DSMZ-German Collection of Microorganisms and Cell Cultures GmbH and cultured in the same DMEM 10% FBS medium. OCI-Lys3 and RCH-ACV cell lines (cells in suspension), were obtained from the same repository and cultured in RPMI 10% FBS medium. Transfections for gain- and loss-of-function studies were performed according to the manufacturer's instructions using the polyfect reagent (Qiagen, 301107). […] Subsequently, cells were trypsinized and quantified using a hemocytometer (NanoEnTek, DHC-N01). Cell viability was quantified using propidium iodide (PI; 50 µg/ml) staining.
Next, we conducted time-course experiments to gain further knowledge on the metabolic determinants underlying the observed synthetic lethality between PPP and OXPHOS. 143B cells were treated either with Piericidin or G6PDi (selective inhibitor of G6PD) alone or the combination of both and cell proliferation was quantified over the course of 96 h. […]

In another assay the test system is Colo320 cells. The assay is described as follows: Colo320 xenograft tumor growth. It counts as in vivo, NMRI-Foxn1^nu/nu mice. The method, then:
Xenografts experiments were carried out in 4 weeks old female NMRI-Foxn1^nu/nu mice that were subcutaneously injected with Colo320 cells. For each tumor, 2 million cells were resuspended in Matrigel Matrix: PBS solution (1:1) (Corning, #354234) and 100 uL of volume was injected in the flanks of each mouse. Tumors were measured every other day using digital vernier caliper until the volume reached […]. At this point, they were sacrificed with CO2 and posterior cervical disruption. Tumors were isolated and frozen in -80°C for future analysis. For volume calculation, we used the formula V = ((LxW^2))/(2) [formula] in mm^3, were V = tumor volume, W = tumor width and L = tumor length.
To inhibit Mitochondrial Complex I in vivo, we employed IACS-010759 (Selleckchem, #S8731), a small-molecule inhibitor of complex I. IACS was dissolved in DMSO at a 10% concentration and then prepared for administration at 0.5% in Methyl cellulose (Sigma, #M0262). Each mouse received a dose of 10 mg/kg for five consecutive days via oral gavage.
We propose that sensitivity to OXPHOS inhibitors can be, at least in part, mediated by combined expression of the NADPH-producing enzymes G6PD and ME1. To test this hypothesis […], we correlated protein expression of G6PD and ME1 for hundreds of cell lines. […]

For a further assay, the system named is 143B cell lines. Briefly: Cell viability of CRISPR knock-out 143B cell lines treated with ETC inhibitors. It counts as cell-based. The method, then: All cell lines, 143b, HeLa, U2OS, and transmitochondrial cybrids carrying mutation in CI (ND2), CIII (CytB) or CIV (Cox2) subunits, were maintained in DMEM high glucose (HyClone), 10% FBS and 1% P/S at 37°C with 5% CO2. Mitochondrial mutant cells were cultured with supplementation of 50 µg/mL uridine. The selected cancer cell lines with different levels of malic enzyme (HCC15, KYSE410, CAKI1, J82, MDAMB453, Colo320, NCIH1703) were obtained from the DSMZ-German Collection of Microorganisms and Cell Cultures GmbH and cultured in the same DMEM 10% FBS medium. OCI-Lys3 and RCH-ACV cell lines (cells in suspension), were obtained from the same repository and cultured in RPMI 10% FBS medium. Transfections for gain- and loss-of-function studies were performed according to the manufacturer's instructions using the polyfect reagent (Qiagen, 301107). For cell number and proliferation experiments, cells were seeded in 12 or 6-well plates and allowed to proliferate for the specified durations. Subsequently, cells were trypsinized and quantified using a hemocytometer (NanoEnTek, DHC-N01). Cell viability was quantified using propidium iodide (PI; 50 µg/ml) staining.
Generation of knockout cell lines using CRISPR-Cas9 technology was performed with the lenti-CRISPR v2 vector (Addgene #52961). Guide sequences are: • sgGFPT1, 5-[…]-3 (SEQ ID NO: 1); • sgG6PD, 5-[…]-3 (SEQ ID NO: 2); • sgPHGDH, 5-[…]-3 (SEQ ID NO: 3); • sgMPC1, 5-[…]-3 (SEQ ID NO: 4) • sgPC, 5-CAGGCCCGGAACACACGGA-3 (SEQ ID NO: 5); • sgACLY, 5-[…]-3 (SEQ ID NO: 6); • sgME1, 5-[…]-3 (SEQ ID NO: 7).
To investigate glucose-dependent alternative metabolic pathways that become essential upon ETC inhibition, we generated through CRISPR/Cas9 technology, knock-out (KO) 143B cell lines for each of the following rate-limiting enzymes and transporters. We selected glucose 6 phosphate dehydrogenase (G6PD) for the PPP, Glutamine-Fructose-6-Phosphate Transaminase 1 (GFPT1) for the hexosamine pathway, Phosphoglycerate Dehydrogenase (PHGDH) for the serine biosynthesis pathway and Mitochondrial Pyruvate Carrier 1 (MPC1) to prevent pyruvate entry into the mitochondria. These KO and Control cells were treated with two specific ETC inhibitors (Piericidin A that targets Complex I and Antimycin A that targets Complex III) and cell viability was assessed after 3 days of treatment. […] We took advantage of the fruit fly Drosophila melanogaster model, as it is cost- and time-efficient and recapitulate a wide range of phenotypes seen in patients with metabolic and mitochondrial disorders. We obtained flies carrying mutations in Zw and Pgd genes (named: Pgd^39 Zw^lo2a), corresponding to human orthologs G6PD and 6PGD respectively. […]

On to `N[C@@H](CCC(=O)N[C@@H](CS)C(=O)NCC(=O)O)C(=O)O` [GSH], for which, in the assay on 143B cells, the cell death phenotype entry was “rescued”. As for `Cc1nc(-c2nc(-c3ccc(OC(F)(F)F)cc3)no2)nn1Cc1cccc(N2CCC(S(C)(=O)=O)CC2)c1` [IACS-010759], the “effect on tumor size” value in the assay on Colo320 cells (Colo320 cells ectopically expressing ME1) is “completely lost”. In addition, the tumor size entry in the assay on Colo320 cells (Colo320 cells subcutaneous in nude mice, 10 mg/kg oral gavage) is recorded as “prominently reduced”.

Antimycin A: the cell viability result in the assay with 143B cell lines (G6PD KO 143B cells, after 3 days of treatment) is listed as “sensitive”. Moreover, the survival or proliferation entry in the assay on 143B cell lines (KO cells for GFPT1, PHGDH or MPC1, after 3 days of treatment) is given as “no differences”.

The record behind these values is EP4653001A1, “TREATMENT, DIAGNOSIS AND/OR PROGNOSIS OF MITOCHONDRIAL DISEASES” (Universidad Autónoma de Madrid, priority 2024, dated 2025).
